# In patent publication US20060019284A1, “Identification of polynucleotides for predicting activity of compounds that interact with and/or modulate protein tyrosine kinases and/or protein tyrosine kinase pathways in lung cancer cells” (priority 2004, published 2006):
# Experiments:
# [1] = test system: Sk-LU-1 lung cell line; test: In vitro cytotoxicity assay (MTS), IC50 determination; assay type: cell-based, human; conditions: Sk-LU-1 cells
# Method: (§1) Cytotoxicity was assessed in cells by the MTS (3-(4,5-dimethylthiazol-2-yl)-5-(3-carboxy-methoxyphenyl)-2-(4-sulphenyl)-2H-tetrazolium, inner salt) assay (T. L. Riss et al., 1992, Mol. Biol. Cell, 3 (Suppl.): 184a).
# (§2) To carry out the assays, the lung cells were plated at 4,000 cells/well in 96 well microtiter plates, and 24 hours later, serially diluted drugs were added. The concentration range for the protein tyrosine kinase inhibitor compound BMS-A used in the cytotoxicity assay was from 5 μg/ml to 0.0016 μg/ml (roughly 10 μM to 0.0032 μM).
# (§3) The cells were incubated at 37° C. for 72 hours at which time the tetrazolium dye, MTS (333 μg/ml final concentration), in combination with the electron coupling agent phenazine methosulfate (25 μM final concentration), was added. A dehydrogenase enzyme in live cells reduces the MTS to a form that absorbs light and can be quantified spectrophotometrically at 492 nM. The greater the absorbency the greater the number of live cells. The results are expressed as an IC50, which is the drug concentration required to inhibit cell proliferation (i.e. absorbance at 492 nm) to 50% of that of untreated control cells. The mean IC50 and standard deviation (SD) from multiple tests for each cell line were calculated.
# (§4) The mean IC50 of the BMS-A protein tyrosine kinase inhibitor compound across the 23 human lund cell lines was calculated. […]
# [2] = test system: L2987 lung cell line; test: as above; assay type: cell-based, human; conditions: L2987 cells
# Method: as §1, §2, §3, §4
# [3] = test system: H226 lung cell line; test: as above; assay type: cell-based, human; conditions: H226 cells
# Method: as §1, §2, §3, §4
# [4] = test system: H838 lung cell line; test: as above; assay type: cell-based, human; conditions: H838 cells
# Method: as §1, §2, §3, §4
# [5] = test system: H661 lung cell line; test: as above; assay type: cell-based, human; conditions: H661 cells
# Method: as §1, §2, §3, §4
# [6] = test system: NCI-H596 lung cell line; test: as above; assay type: cell-based, human; conditions: NCI-H596 cells
# Method: as §1, §2, §3, §4
# [7] = test system: H441 lung cell line; test: as above; assay type: cell-based, human; conditions: H441 cells
# Method: as §1, §2, §3, §4
# [8] = test system: H522 lung cell line; test: as above; assay type: cell-based, human; conditions: H522 cells
# Method: as §1, §2, §3, §4
# [9] = test system: SW1271 lung cell line; test: as above; assay type: cell-based, human; conditions: SW1271 cells
# Method: as §1, §2, §3, §4
# [10] = test system: SW900 lung cell line; test: as above; assay type: cell-based, human; conditions: SW900 cells
# Method: as §1, §2, §3, §4
# [11] = test system: H2347 lung cell line; test: as above; assay type: cell-based, human; conditions: H2347 cells, 72 hours, mean of 4 tests, read-out: Mean IC50 (uM) to BMS-A
# Method: as §1, §2, §3, §4
# [12] = test system: H1155 lung cell line; test: as above; assay type: cell-based, human; conditions: H1155 cells, 72 hours, mean of 3 tests, read-out: Mean IC50 (uM) to BMS-A
# Method: as §1, §2, §3, §4
# [13] = test system: H23 lung cell line; test: as above; assay type: cell-based, human; conditions: H23 cells, 72 hours, mean of 4 tests, read-out: Mean IC50 (uM) to BMS-A
# Method: as §1, §2, §3, §4
# [14] = test system: panel of twenty-three human lung cell lines; test: In vitro cytotoxicity assay (MTS), whole panel; assay type: cell-based; conditions: across the 23 lung cell lines
# Method: as §1, §2, §3, §4
# [15] = test system: A549 cells; test: Drug (BMS-A) treatment of A549 cells and expression profiling (HG-U133 arrays); assay type: cell-based, human; conditions: A549, 0.4 μM, 4 and 24 hours
# Method: To identify polynucleotides regulated by a protein tyrosine kinase inhibitor compound, e.g., BMS-A, a lung cell line A549 was treated with or without the BMS-A compound (0.4 μM) in 0.1% DMSO for 4 and 24 hours. Expression profiling was performed, and the data were analyzed using GeneChip® Expression Analysis software MAS 5.0 (Affymetrix, Santa Clara, Calif.). The polynucleotide expression of a cell line treated with drug was compared using pair-wise analysis to the polynucleotide expression of the cell line without drug treatment. A change in p-value was calculated, indicating an increase, decrease or no change in polynucleotide expression. When the p-value was less than 0.0025, the change was considered significant. Duplicated experiments were performed, and analysis of 4 cross comparisons were performed.
# The lung cells were grown under standard cell culture conditions: RPMI 1640 supplemented to contain 10% fetal bovine serum, 100 IU/ml penicillin, […] streptomycin, 2 mM L-glutamine and 10 mM Hepes (all from GibcoBRL, Rockville, Md.). RNA was isolated from the cultured cells, either treated or untreated with drug (i.e., the protein tyrosine kinase inhibitor compound) at 50-70% confluence using the RNeasy™ kits commercially available from Qiagen, Valencia, Calif. The quality of the RNA was assessed by measuring the 28s:18s ribosomal RNA ratio using an Agilent 2100 bioanalyzer (Agilent Technologies, Rockville, Md.). The concentration of total RNA was determined spectrophotometrically. 10 μg of total RNA from each cell line was used to prepare biotinylated probe according to the Affymetrix Genechip® Expression Analysis Technical Manual, 2001. Targets were hybridized to Affymetrix high density oligonucleotide array human HG-U133 set chips (Affymetrix, Santa Clara, Calif.). The arrays were then washed and stained using the GeneChip® Fluidics station according to the manufacture's instructions (Affymetrix Genechip® Technical Manual, 2001). The HG-U133 set contains 2 Genechip® arrays, which contain approximately 45,000 probe sets representing more than 39,000 transcripts derived from approximately 33,000 well-substantiated human polynucleotides.
# A549 cells were seeded in a 10 cm^2 culture plate in cell culture medium as described herein and were cultured for 24 hours at 37° C. The medium was then changed to medium containing drug (0.4 μM BMS-A compound in 0.1% DMSO, Sigma); the cells were incubated for 4 hour or 24 hours, and then lysed for RNA isolation. The expression profiling was performed as described above and data were analyzed using GeneChip® Expression Analysis software MAS 5.0 (Affymetrix, Santa Clara, Calif.). The expression data of a drug treated cell line was compared pair-wise to data from the same cell line untreated with drug. A change in p-value was calculated, indicating an increase, decrease or no change in polynucleotide expression. When the p-value was less than 0.0025, the change was considered to be significant. This analysis was performed for duplicated experiments
# [16] = test system: SK-MES-1 lung cell line; test: In vitro cytotoxicity assay (MTS), IC50 determination; conditions: SK-MES-1 cells
# Method: as §1, §2, §3, §4
# [17] = MTS, 72 hours, mean of 4 tests, read-out: Mean IC50 (uM) to BMS-A
# [18] = IC50 relative to mean IC50 of all 23 cell lines
# [19] = MTS, 72 hours, mean of 3 tests, read-out: Mean IC50 (uM) to BMS-A
# [20] = MTS, 72 hours, mean of 2 tests, read-out: Mean IC50 (uM) to BMS-A
smiles,measurement,setting,value
"Cc1nc(Nc2ncc(C(=O)Nc3c(C)cccc3Cl)s2)cc(N2CCN(CCO)CC2)n1 [BMS-A, N-(2-chloro-6-methylphenyl)-2-[[6-[4-(2-hydroxyethyl)-1-piperazinyl]-2-methyl-4-pyrimidinyl]amino]-5-thiazolecarboxamide]",IC50,[1]; [17],0.014 µM
same,Classification,[1]; [18],Sensitive (cell lines having an IC50 below the mean IC50 were defined as sensitive to the compound)
same,IC50,[2]; [17],0.037 µM
same,Classification,[2]; [18],Sensitive (cell lines having an IC50 below the mean IC50 were defined as sensitive to the compound)
same,IC50,[3]; [19],0.058 µM
same,Classification,[3]; [18],Sensitive (cell lines having an IC50 below the mean IC50 were defined as sensitive to the compound)
same,IC50,[4]; [17],0.072 µM
same,Classification,[4]; [18],Sensitive (cell lines having an IC50 below the mean IC50 were defined as sensitive to the compound)
same,IC50,[5]; [17],0.123 µM
same,Classification,[5]; [18],Sensitive (cell lines having an IC50 below the mean IC50 were defined as sensitive to the compound)
same,IC50,[6]; [20],0.124 µM
same,Classification,[6]; [18],Sensitive (cell lines having an IC50 below the mean IC50 were defined as sensitive to the compound)
same,IC50,[7]; [17],0.141 µM
same,Classification,[7]; [18],Sensitive (cell lines having an IC50 below the mean IC50 were defined as sensitive to the compound)
same,IC50,[8]; [19],0.215 µM
same,Classification,[8]; [18],Sensitive (cell lines having an IC50 below the mean IC50 were defined as sensitive to the compound)
same,IC50,[9]; [20],0.242 µM
same,Classification,[9]; [18],Sensitive (cell lines having an IC50 below the mean IC50 were defined as sensitive to the compound)
same,IC50,[10]; [19],0.507 µM
same,Classification,[10]; [18],Sensitive (cell lines having an IC50 below the mean IC50 were defined as sensitive to the compound)
same,IC50,[11],≥ 1.02 µM
same,IC50,[12],≥ 1.02 µM
same,IC50,[13],≥ 1.02 µM
same,variation in the IC50 values among the twenty-three lung cell lines,[14],> 100 fold
same,Modulated by BMS-A,[15]; Gene No. 12 peroxisomal biogenesis factor 6 (NM_000287),Yes
same,Modulated by BMS-A,"[15]; Gene No. 24 cysteine-rich, angiogenic inducer, 61 (NM_001554)",Yes
same,Modulated by BMS-A,[15]; Gene No. 26 fibroblast growth factor 2 (basic) (NM_002006),Yes
same,Modulated by BMS-A,[15]; Gene No. 35 polymerase I and transcript release factor (NM_012232),Yes
same,Modulated by BMS-A,"[15]; Gene No. 39 ESTs, Weakly similar to hypothetical protein FLJ20489 (AI004009)",Yes
same,Modulated by BMS-A,[15]; Gene No. 45 Rho GDP dissociation inhibitor (GDI) beta (NM_001175),Yes
same,Modulated by BMS-A,[15]; Gene No. 47 FOS-like antigen 1 (NM_005438),Yes
same,Modulated by BMS-A,"[15]; Gene No. 58 collagen, type VI, alpha 1 (NM_001848)",Yes
same,Modulated by BMS-A,[15]; Gene No. 64 KIAA1237 protein (AI148659),Yes
same,Modulated by BMS-A,"[15]; Gene No. 69 a disintegrin-like and metalloprotease (reprolysin type) with thrombospondin type 1 motif, 1 (NM_006988)",Yes
same,Modulated by BMS-A,[15]; Gene No. 72 serum-inducible kinase (NM_006622),Yes
same,Modulated by BMS-A,[15]; Gene No. 90 hypothetical protein FLJ20607 (NM_017899),Yes
same,Modulated by BMS-A,[15]; Gene No. 98 germ cell specific Y-box binding protein (NM_015982),Yes
same,Modulated by BMS-A,[15]; Gene No. 105 J domain containing protein 1 (NM_021800),Yes
same,Modulated by BMS-A,"[15]; Gene No. 110 inhibitor of DNA binding 2, dominant negative helix-loop-helix protein (NM_002166)",Yes
same,Modulated by BMS-A,[15]; Gene No. 115 neuronal cell adhesion molecule (NM_005010),Yes
same,Classification,[16]; [18],Sensitive (cell lines having an IC50 below the mean IC50 were defined as sensitive to the compound)
same,IC50,"[16]; read-out: Mean IC50 (uM) to BMS-A, MTS, 72 hours, mean of 3 tests",0.151 µM
